Reference: ChEMBL document CHEMBL1148051, “Antibiotic activity and absolute configuation of 8S-heptadeca-2(Z),9(Z)-diene-4,6-diyne-1,8-diol from Bupleurum salicifolium” (1994)
In brackets after ≈: the same amount, converted by molar mass. Activity calls are given as the source filed them. The rule behind the calls is not given here.

Experiments:
Pseudomonas aeruginosa = experiment: Antibacterial activity against Pseudomonas aeruginosa AK 958; type: functional, organism-based
Candida albicans = experiment: Antifungal activity against Candida albicans UBC1; type: functional, organism-based
Bacillus subtilis = experiment: Antibacterial activity against Bacillus subtilis CECT 39 by rotary shaker method; type: functional
Escherichia coli = experiment: Antibacterial activity against Escherichia coli CECT 99; type: functional, organism-based
Staphylococcus aureus = experiment: Antibacterial activity against Staphylococcus aureus ATCC 6538 by rotary shaker method; type: functional
Salmonella = experiment: Antibacterial activity against Salmonella sp. CECT 456; type: functional, organism-based

MIC (Bacillus subtilis): 10.5 µg/mL (≈ 40.3 µM)
MIC (Staphylococcus aureus): 10 µg/mL (≈ 38.4 µM)
SMILES: CCCCCCC/C=C\[C@H](O)C#CC#C/C=C\CO
Activity (Pseudomonas aeruginosa): inactive
Activity (Candida albicans): inactive
Activity (Escherichia coli): inactive
Activity (Salmonella): inactive
